Assay results as given in PMC12089509, “NorA Efflux Pump Inhibitors: Expanding SAR Knowledge of Pyrazolo[4,3‐c][1,2]benzothiazine 5,5‐Dioxide Derivatives” (Archiv Der Pharmazie, 2025).

Test system: Staphylococcus aureus SA-K2378 biofilm
Type: cell-based
Conditions: for Biofilm formation (%): CPX 1/4 X MIC + EPI 1,6 µg/ml; for reduction in biofilm formation: EPI at 1.6 µg/mL with CPX at ½ MIC, vs untreated control
Source text: The formation of biofilms is a significant contributor to the development of AMR [1, 26, 27]. This is due to the fact that biofilms provide a protective environment for bacteria, thereby rendering them more resilient to the effects of common antibacterial agents. Over the years, several investigations have been conducted to study the role of EPs in the various stages of microbial biofilm formation. However, a definitive answer regarding the potential role of EPs in this microbial pathway remains elusive. While some studies have reported a negative effect of certain EPs on biofilm formation, others have highlighted the promising role of EPIs in limiting biofilm formation and enhancing the efficacy of antibiotics under biofilm conditions.
The biofilm production by SA‐K1902 and SA‐K2378 strains was analyzed in flat 96‐well microtiter plates as previously described, with some modifications. […] The microplates were incubated at 37°C for 24 h in static conditions. After incubation, the biofilms were washed three times with distilled water, dried at 60°C for 1 h, and stained with 0,1% crystal violet for 10 min. After staining, the crystal violet was removed and the wells were washed three times with water, dried at 37°C for 30 min, and the bound crystal violet was solubilized with 96% ethanol in shaking conditions. At the end of the destaining, the absorbance (570 nm) of the solutions in each well was measured using the FLUOstar Omega plate reader (BMG‐LABTECH, Germany) to quantify the biofilm produced in each condition compared with the control (biofilm produced by the strain without any compound/antibiotic). Biofilm assays were performed in triplicate for each condition.

SMILES | Biofilm formation (%) | reduction in biofilm formation [%]
CN1c2c(-c3ccc(Cl)cc3)n[nH]c2-c2ccccc2S1(=O)=O [Compound 10, 3‐(4‐Chlorophenyl)‐4‐methyl‐1,4‐dihydropyrazolo[4,3‐c][1,2]benzothiazine 5,5‐dioxide] | untreated control‐like condition | 54
O=S1(=O)Nc2c(-c3ccc(Cl)cc3)nn(-c3ccccc3)c2-c2ccccc21 [Compound 3] | positive synergistic effect | 83
